In patent US20260184710A1, “CASITAS B-LINEAGE LYMPHOMA PROTOONCOGENE B (CBL-B) DEGRADING COMPOUNDS AND ASSOCIATED METHODS OF USE” (Arvinas Operations, Inc., priority 2022, published 2026):

Key:
Cbl-b [1] = biological target: T1, Cbl-b (Homo sapiens, UniProt Q13191); experiment: Cbl-b Degradation Method A (FACS, anti-Cbl-b antibody staining); type: cell-based; settings: Cbl-b-HiBit KI Jurkat Cells, incubated at least 20 hours; for DC50: half maximal degradation, read-out: Cbl-b Degredation Method A IC50; for Dmax: Jurkat, maximum degradation observed, read-out: Cbl-b Degredation Method A Dmax (%)
T1 construct: Cbl-b-HiBit KI Jurkat Cells were purchased from Promega; host or cells: Cbl-b-HiBiT knock-in Jurkat cells
T1 sequence (Q13191 whole entry): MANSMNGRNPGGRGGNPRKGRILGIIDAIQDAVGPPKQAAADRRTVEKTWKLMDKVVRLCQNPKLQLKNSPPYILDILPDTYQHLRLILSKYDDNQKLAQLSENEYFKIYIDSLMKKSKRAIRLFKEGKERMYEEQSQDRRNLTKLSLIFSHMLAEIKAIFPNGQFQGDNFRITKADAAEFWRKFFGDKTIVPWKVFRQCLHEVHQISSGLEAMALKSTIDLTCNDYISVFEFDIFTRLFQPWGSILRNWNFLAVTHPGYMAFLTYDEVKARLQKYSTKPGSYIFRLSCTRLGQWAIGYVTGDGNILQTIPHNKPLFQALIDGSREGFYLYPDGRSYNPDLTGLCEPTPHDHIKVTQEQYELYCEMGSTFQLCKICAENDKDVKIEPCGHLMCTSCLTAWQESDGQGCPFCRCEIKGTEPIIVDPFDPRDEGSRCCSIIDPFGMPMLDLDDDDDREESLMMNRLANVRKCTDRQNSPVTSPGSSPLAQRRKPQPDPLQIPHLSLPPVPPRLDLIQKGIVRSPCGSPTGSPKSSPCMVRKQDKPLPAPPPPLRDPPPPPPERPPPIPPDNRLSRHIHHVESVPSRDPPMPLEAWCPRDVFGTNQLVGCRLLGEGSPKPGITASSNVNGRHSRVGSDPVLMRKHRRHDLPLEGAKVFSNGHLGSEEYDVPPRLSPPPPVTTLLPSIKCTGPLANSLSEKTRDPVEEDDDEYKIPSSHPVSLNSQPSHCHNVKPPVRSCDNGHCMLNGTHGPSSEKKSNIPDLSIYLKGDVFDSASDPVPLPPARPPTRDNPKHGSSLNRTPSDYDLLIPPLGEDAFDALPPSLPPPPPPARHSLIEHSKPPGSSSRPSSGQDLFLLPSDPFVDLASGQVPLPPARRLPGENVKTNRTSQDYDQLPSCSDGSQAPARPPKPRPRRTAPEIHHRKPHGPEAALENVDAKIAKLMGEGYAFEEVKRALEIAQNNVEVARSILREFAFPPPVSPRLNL
How it was run: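 Readout is flow cytometry of fixed, permeabilized cells immunostained for Cbl-b (primary 1:200, AF488 secondary). Cells were Cbl-b-HiBit knock-in Jurkat, exposed to compound ≥20 h at 37 °C; half-maximal degradation concentration (DC50) and maximal degradation (Dmax) calculated relative to control.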

Cbl-b [2] = biological target: T1, Cbl-b; experiment: Cbl-b Degradation Method B (Nano-Glo HiBiT lytic detection); type: cell-based; settings: Cbl-b-HiBit KI Jurkat Cells, incubated at least 6-24 hours; for DC50: half maximal degradation, read-out: Cbl-b Degredation Method B IC50; for Dmax: maximum degradation observed, read-out: Cbl-b Degredation Method B Dmax (%)
How it was run: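 An 11-point, 3-fold compound dilution was applied for 6-24 hours to Jurkat cells carrying HiBiT-tagged endogenous Cbl-b. Lytic HiBiT luminescence quantified residual protein. Outputs are DC50 and Dmax relative to DMSO control.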

SMILES	DC50 (Cbl-b [1])	Dmax (Cbl-b [1])	DC50 (Cbl-b [2])	Dmax (Cbl-b [2])
Cn1cnnc1CC1(c2cccc(N3Cc4c(cc(CN5CCC[C@H](CN6CCN(C[C@H]7CC[C@@H](OC8CCN(c9ccc%10c(c9Cl)CN(C9CCC(=O)NC9=O)C%10=O)CC8)CC7)CC6)C5)cc4C(F)(F)F)C3=O)c2)COC1 (stereo partly drawn) [Example 165, 3-[4-chloro-1-oxo-5-(4-{[(1r,4r)-4-[(4-{[(3S)-1-{[2-(3-{3-[(4-methyl-4H-1,2,4-triazol-3-yl)methyl]oxetan-3-yl}phenyl)-3-oxo-7-(trifluoromethyl)-2,3-dihydro-1H-isoindol-5-yl]methyl}piperidin-3-yl]methyl}piperazin-1-yl)methyl]cyclohexyl]oxy}piperidin-1-yl)-2,3-dihydro-1H-isoindol-2-yl]piperidine-2,6-dione]	< 5 nM	> 70%	< 5 nM	> 70%
COc1c(N2CCC(CN3CCC4(CC3)CN(c3cc5c(c(C(F)(F)F)c3)CN(c3cccc([C@]6(Cc7nncn7C)C[C@@H](C#N)C6)c3)C5=O)C4)CC2)ccc2c1CN(C1CCC(=O)NC1=O)C2=O (stereo partly drawn) [Example 174, (1r,3r)-3-(3-{6-[7-({1-[2-(2,6-dioxopiperidin-3-yl)-4-methoxy-1-oxo-2,3-dihydro-1H-isoindol-5-yl]piperidin-4-yl}methyl)-2,7-diazaspiro[3.5]nonan-2-yl]-1-oxo-4-(trifluoromethyl)-2,3-dihydro-1H-isoindol-2-yl}phenyl)-3-[(4-methyl-4H-1,2,4-triazol-3-yl)methyl]cyclobutane-1-carbonitrile]	5 to 50 nM	> 70%	< 5 nM	> 70%
CC1c2nc(N3CCC(O[C@H]4CC[C@H](CN5CCC6(CC5)CN(c5cc7c(c(C(F)(F)F)c5)CN(c5cccc([C@]8(Cc9nncn9C)C[C@@H](C#N)C8)c5)C7=O)C6)CC4)CC3)ccc2C(=O)N1C1CCC(=O)NC1=O (stereo partly drawn) [Example 175, (1r,3r)-3-[(4-methyl-4H-1,2,4-triazol-3-yl)methyl]-3-{3-[1-oxo-6-(7-{[(1r,4r)-4-({1-[6-(2,6-dioxopiperidin-3-yl)-7-methyl-5-oxo-5H,6H,7H-pyrrolo[3,4-b]pyridin-2-yl]piperidin-4-yl}oxy)cyclohexyl]methyl}-2,7-diazaspiro[3.5]nonan-2-yl)-4-(trifluoromethyl)-2,3-dihydro-1H-isoindol-2-yl]phenyl}cyclobutane-1-carbonitrile]	5 to 50 nM	> 70%	< 5 nM	35 to 70%
Cc1cc(N2CCC(CN3CCC4(C3)CN(c3cc5c(c(C(F)(F)F)c3)CN(c3cccc([C@]6(Cc7nncn7C)C[C@@H](C#N)C6)c3)C5=O)C4)CC2)c(F)c2c1C(=O)N(C1CCC(=O)NC1=O)C2 (stereo partly drawn) [Example 176, (1r,3r)-3-(3-{6-[6-({1-[2-(2,6-dioxopiperidin-3-yl)-4-fluoro-7-methyl-1-oxo-2,3-dihydro-1H-isoindol-5-yl]piperidin-4-yl}methyl)-2,6-diazaspiro[3.4]octan-2-yl]-1-oxo-4-(trifluoromethyl)-2,3-dihydro-1H-isoindol-2-yl}phenyl)-3-[(4-methyl-4H-1,2,4-triazol-3-yl)methyl]cyclobutane-1-carbonitrile]	5 to 50 nM	35 to 70%	< 5 nM	35 to 70%
Cc1cc(N2CCC(CN3CCC4(CCN(c5cc6c(c(C(F)(F)F)c5)CN(c5cccc([C@]7(Cc8nncn8C)C[C@@H](C#N)C7)c5)C6=O)C4)C3)CC2)c(F)c2c1C(=O)N(C1CCC(=O)NC1=O)C2 (stereo partly drawn) [Example 177, (1r,3r)-3-(3-{6-[7-({1-[2-(2,6-dioxopiperidin-3-yl)-4-fluoro-7-methyl-1-oxo-2,3-dihydro-1H-isoindol-5-yl]piperidin-4-yl}methyl)-2,7-diazaspiro[4.4]nonan-2-yl]-1-oxo-4-(trifluoromethyl)-2,3-dihydro-1H-isoindol-2-yl}phenyl)-3-[(4-methyl-4H-1,2,4-triazol-3-yl)methyl]cyclobutane-1-carbonitrile]	5 to 50 nM	35 to 70%	< 5 nM	35 to 70%

Continued, values first:

DC50 (Cbl-b [1])	Dmax (Cbl-b [1])	DC50 (Cbl-b [2])	Dmax (Cbl-b [2])	SMILES
< 5 nM	> 70%	< 5 nM	> 70%	CC1CN(C[C@H]2CC[C@@H](OC3CCN(c4ccc5c(c4F)CN(C4CCC(=O)NC4=O)C5=O)CC3)CC2)CCN1C[C@H]1CCCN(Cc2cc3c(c(C(F)(F)F)c2)CN(c2cccc(C4(Cc5nncn5C)COC4)c2)C3=O)C1 (stereo partly drawn) [Example 166, 3-[4-fluoro-1-oxo-5-(4-{[(1r,4r)-4-[(3-methyl-4-{[(3S)-1-{[2-(3-{3-[(4-methyl-4H-1,2,4-triazol-3-yl)methyl]oxetan-3-yl}phenyl)-3-oxo-7-(trifluoromethyl)-2,3-dihydro-1H-isoindol-5-yl]methyl}piperidin-3-yl]methyl}piperazin-1-yl)methyl]cyclohexyl]oxy}piperidin-1-yl)-2,3-dihydro-1H-isoindol-2-yl]piperidine-2,6-dione]
< 5 nM	> 70%	< 5 nM	35 to 70%	Cn1cnnc1C[C@]1(c2cccc(N3Cc4c(cc(CN5CCN(C[C@H]6CC[C@H](OC7CCN(c8ccc9c(c8F)CN(C8CCC(=O)NC8=O)C9=O)CC7)CC6)CC5)cc4C(F)(F)F)C3=O)c2)C[C@H](C#N)C1 (stereo partly drawn) [Example 167, (1r,3r)-3-[(4-methyl-4H-1,2,4-triazol-3-yl)methyl]-3-(3-{1-oxo-6-[(4-{[(1r,4r)-4-({1-[2-(2,6-dioxopiperidin-3-yl)-4-fluoro-1-oxo-2,3-dihydro-1H-isoindol-5-yl]piperidin-4-yl}oxy)cyclohexyl]methyl}piperazin-1-yl)methyl]-4-(trifluoromethyl)-2,3-dihydro-1H-isoindol-2-yl}phenyl)cyclobutane-1-carbonitrile]
5 to 50 nM	> 70%	< 5 nM	> 70%	COc1c(N2CCC(O[C@H]3CC[C@H](CN4CCC5(CC4)CN(c4cc6c(c(C(F)(F)F)c4)CN(c4cccc(C7(Cc8nncn8C)COC7)c4)C6=O)C5)CC3)CC2)ccc2c1CN(C1CCC(=O)NC1=O)C2=O (stereo partly drawn) [Example 169, 3-[4-methoxy-1-oxo-5-(4-{[(1r,4r)-4-({2-[2-(3-{3-[(4-methyl-4H-1,2,4-triazol-3-yl)methyl]oxetan-3-yl}phenyl)-3-oxo-7-(trifluoromethyl)-2,3-dihydro-1H-isoindol-5-yl]-2,7-diazaspiro[3.5]nonan-7-yl}methyl)cyclohexyl]oxy}piperidin-1-yl)-2,3-dihydro-1H-isoindol-2-yl]piperidine-2,6-dione]
5 to 50 nM	> 70%	< 5 nM	35 to 70%	Cc1cc(N2CCC(CN3CCC4(CC3)CN(c3cc5c(c(C(F)(F)F)c3)CN(c3cccc([C@]6(Cc7nncn7C)C[C@@H](C#N)C6)c3)C5=O)C4)CC2)c(F)c2c1C(=O)N(C1CCC(=O)NC1=O)C2 (stereo partly drawn) [Example 171, (1r,3r)-3-(3-{6-[7-({1-[2-(2,6-dioxopiperidin-3-yl)-4-fluoro-7-methyl-1-oxo-2,3-dihydro-1H-isoindol-5-yl]piperidin-4-yl}methyl)-2,7-diazaspiro[3.5]nonan-2-yl]-1-oxo-4-(trifluoromethyl)-2,3-dihydro-1H-isoindol-2-yl}phenyl)-3-[(4-methyl-4H-1,2,4-triazol-3-yl)methyl]cyclobutane-1-carbonitrile]
5 to 50 nM	35 to 70%	5 to 50 nM	35 to 70%	Cn1cnnc1C[C@]1(c2cccc(N3Cc4c(cc(N5CC6(CCN(CC7(F)CCN(c8ccc9c(c8)C(=O)N(C8CCC(=O)NC8=O)C9=O)CC7)CC6)C5)cc4C(F)(F)F)C3=O)c2)C[C@H](C#N)C1 (stereo partly drawn) [Example 172, (1r,3r)-3-(3-{6-[7-({1-[2-(2,6-dioxopiperidin-3-yl)-1,3-dioxo-2,3-dihydro-1H-isoindol-5-yl]-4-fluoropiperidin-4-yl}methyl)-2,7-diazaspiro[3.5]nonan-2-yl]-1-oxo-4-(trifluoromethyl)-2,3-dihydro-1H-isoindol-2-yl}phenyl)-3-[(4-methyl-4H-1,2,4-triazol-3-yl)methyl]cyclobutane-1-carbonitrile]
5 to 50 nM	> 70%	< 5 nM	35 to 70%	Cn1cnnc1C[C@]1(c2cccc(N3Cc4c(cc(N5CC6(CCN(CC7CCN(c8ccc9c(c8Cl)CN(C8CCC(=O)NC8=O)C9=O)CC7)CC6)C5)cc4C(F)(F)F)C3=O)c2)C[C@H](C#N)C1 (stereo partly drawn) [Example 173, (1r,3r)-3-(3-{6-[7-({1-[4-chloro-2-(2,6-dioxopiperidin-3-yl)-1-oxo-2,3-dihydro-1H-isoindol-5-yl]piperidin-4-yl}methyl)-2,7-diazaspiro[3.5]nonan-2-yl]-1-oxo-4-(trifluoromethyl)-2,3-dihydro-1H-isoindol-2-yl}phenyl)-3-[(4-methyl-4H-1,2,4-triazol-3-yl)methyl]cyclobutane-1-carbonitrile]
5 to 50 nM	35 to 70%	< 5 nM	35 to 70%	CC1c2nc(N3CCC(O[C@H]4CC[C@H](CN5CCC6(C5)CN(c5cc7c(c(C(F)(F)F)c5)CN(c5cccc([C@]8(Cc9nncn9C)C[C@@H](C#N)C8)c5)C7=O)C6)CC4)CC3)ccc2C(=O)N1C1CCC(=O)NC1=O (stereo partly drawn) [Example 178, (1r,3r)-3-[(4-methyl-4H-1,2,4-triazol-3-yl)methyl]-3-{3-[1-oxo-6-(6-{[(1r,4r)-4-({1-[6-(2,6-dioxopiperidin-3-yl)-7-methyl-5-oxo-5H,6H,7H-pyrrolo[3,4-b]pyridin-2-yl]piperidin-4-yl}oxy)cyclohexyl]methyl}-2,6-diazaspiro[3.4]octan-2-yl)-4-(trifluoromethyl)-2,3-dihydro-1H-isoindol-2-yl]phenyl}cyclobutane-1-carbonitrile]
